From patent US8784893B2, “Polymer formulations for delivery of bioactive agents” (Carbylan Therapeutics, Inc., priority 2007, dated 2014)

Assay: In vitro release of solid steroid from Carb-S/PEG-DA crosslinked (CARBYLAN-SX) gels into PBS
Format: physicochemical
Conditions: solid drug in gel, 37° C., after 72 hours of incubation
Description: A 1.75% (w/v) solution of the Carb-S (Example 2) was prepared using deionized water and the pH was adjusted to 7.4. […] A 4% (w/v) polyethylene glycol diacrylate (PEG-DA) [Mw=3400] solution was prepared using deionized water and the pH was adjusted to 7.4. […] After vortexing the mixture, 0.2 mL of the mixture was added to a 15 mL plastic centrifuge tube. […] The samples were kept at 37° C. by placing the shaker in an incubation oven that was set at 37° C. At specific intervals (24 hrs), the PBS buffer supernatant was removed from the tube and the steroid concentration in the PBS buffer was determined using UV absorption spectroscopy. […] 10 mL fresh PBS buffer was added to each tube and the tubes were returned to the shaker. This gelation and release testing was repeated in a similar manner using solid beclamethasone dipropionate (10 mg). […] Controlled Release, 1 (2000)).

## CCC(=O)OCC(=O)[C@@]1(OC(=O)CC)[C@@H](C)C[C@H]2[C@@H]3CCC4=CC(=O)C=C[C@]4(C)[C@@]3(Cl)[C@@H](O)C[C@@]21C [beclomethasone diproprionate]
  Drug detected (released) from the CARBYLAN-SX polymer matrix: less than 5%
